From the NIST ThermoML archive (doi:10.1016/j.jct.2006.08.009)

Test: mn = molality of the nth substance listed, in mol/kg
Conditions: 350 kPa, Liquid; for apparent molar heat capacity: Extra sensitive DSC

OCC(O)CO [glycerol] + O
Conditions | apparent molar heat capacity [J/K/mol] | mass density [kg/m3]
278.15 K, m1 = 0.02 | 210 | 1000.56
278.15 K, m1 = 0.05 | 208 | 1001.19
278.15 K, m1 = 0.1 | 208.3 | 1002.32
278.15 K, m1 = 0.2501 | 206.7 | 1005.96
278.15 K, m1 = 0.5002 | 206 | 1011.28
278.15 K, m1 = 1.001 | 203.2 | 1021.37
278.15 K, m1 = 2 | 200 | 1040.06
278.15 K, m1 = 3.003 | 192.1 | 1056.11
278.15 K, m1 = 4.999 | 196.4 | 1082.51
283.15 K, m1 = 0.02 | 220 | 1000.32
283.15 K, m1 = 0.05 | 219 | 1000.93
283.15 K, m1 = 0.1 | 219.7 | 1002.05
283.15 K, m1 = 0.2501 | 218.3 | 1005.34
283.15 K, m1 = 0.5002 | 217.4 | 1010.56
283.15 K, m1 = 1.001 | 215.1 | 1020.54
283.15 K, m1 = 2 | 212.1 | 1038.67
283.15 K, m1 = 3.003 | 206.8 | 1054.65
283.15 K, m1 = 4.999 | 207.4 | 1080.68
288.15 K, m1 = 0.02 | 229 | 999.7
288.15 K, m1 = 0.05 | 227 | 1000.3
288.15 K, m1 = 0.1 | 227.7 | 1001.41
288.15 K, m1 = 0.2501 | 226.4 | 1004.63
288.15 K, m1 = 0.5002 | 225.6 | 1009.79
288.15 K, m1 = 1.001 | 223.5 | 1019.64
288.15 K, m1 = 2 | 220.6 | 1037.48
288.15 K, m1 = 3.003 | 215.7 | 1053.13
288.15 K, m1 = 4.999 | 215.28 | 1078.92
293.15 K, m1 = 0.02 | 235 | –
293.15 K, m1 = 0.05 | 233 | –
293.15 K, m1 = 0.1 | 234 | –
293.15 K, m1 = 0.2501 | 233 | –
293.15 K, m1 = 0.5002 | 232.3 | –
293.15 K, m1 = 1.001 | 230.4 | –
293.15 K, m1 = 2 | 227.5 | –
293.15 K, m1 = 3.003 | 222.75 | –
293.15 K, m1 = 4.999 | 221.83 | –
298.15 K, m1 = 0.02 | 240 | 997.59
298.15 K, m1 = 0.05 | 239 | 998.2
298.15 K, m1 = 0.1 | 239.7 | 999.29
298.15 K, m1 = 0.2501 | 238.6 | 1002.43
298.15 K, m1 = 0.5002 | 238 | 1007.48
298.15 K, m1 = 1.001 | 236.1 | 1017.07
298.15 K, m1 = 2 | 233.27 | 1034.46
298.15 K, m1 = 3.003 | 228.47 | 1049.73
298.15 K, m1 = 4.999 | 227.35 | 1074.96
303.15 K, m1 = 0.02 | 245 | –
303.15 K, m1 = 0.05 | 244 | –
303.15 K, m1 = 0.1 | 244.7 | –
303.15 K, m1 = 0.2501 | 243.6 | –
303.15 K, m1 = 0.5002 | 243 | –
303.15 K, m1 = 1.001 | 241.1 | –
303.15 K, m1 = 2 | 238.33 | –
303.15 K, m1 = 3.003 | 233.46 | –
303.15 K, m1 = 4.999 | 232.27 | –
308.15 K, m1 = 0.02 | 249 | 994.55
308.15 K, m1 = 0.05 | 248.4 | 995.16
308.15 K, m1 = 0.1 | 249 | 996.23
308.15 K, m1 = 0.2501 | 247.9 | 999.33
308.15 K, m1 = 0.5002 | 247.4 | 1004.29
308.15 K, m1 = 1.001 | 245.5 | 1013.67
308.15 K, m1 = 2 | 242.76 | 1030.71
308.15 K, m1 = 3.003 | 237.83 | 1045.67
308.15 K, m1 = 4.999 | 236.6 | 1070.41
313.15 K, m1 = 0.02 | 253 | –
313.15 K, m1 = 0.05 | 252.1 | –
313.15 K, m1 = 0.1 | 252.9 | –
313.15 K, m1 = 0.2501 | 251.9 | –
313.15 K, m1 = 0.5002 | 251.3 | –
313.15 K, m1 = 1.001 | 249.4 | –
313.15 K, m1 = 2 | 246.75 | –
313.15 K, m1 = 3.003 | 241.83 | –
313.15 K, m1 = 4.999 | 240.56 | –
318.15 K, m1 = 0.02 | 257 | 990.73
318.15 K, m1 = 0.05 | 255.7 | 991.32
318.15 K, m1 = 0.1 | 256.3 | 992.37
318.15 K, m1 = 0.2501 | 255.4 | 995.42
318.15 K, m1 = 0.5002 | 254.8 | 1000.34
318.15 K, m1 = 1.001 | 252.98 | 1009.55
318.15 K, m1 = 2 | 250.33 | 1026.3
318.15 K, m1 = 3.003 | 245.4 | 1041.09
318.15 K, m1 = 4.999 | 244.12 | 1065.4
323.15 K, m1 = 0.02 | 260 | –
323.15 K, m1 = 0.05 | 258.8 | –
323.15 K, m1 = 0.1 | 259.4 | –
323.15 K, m1 = 0.2501 | 258.6 | –
323.15 K, m1 = 0.5002 | 258 | –
323.15 K, m1 = 1.001 | 256.23 | –
323.15 K, m1 = 2 | 253.61 | –
323.15 K, m1 = 3.003 | 248.72 | –
323.15 K, m1 = 4.999 | 247.42 | –
328.15 K, m1 = 0.02 | 263 | 986.19
328.15 K, m1 = 0.05 | 261.7 | 986.78
328.15 K, m1 = 0.1 | 262.3 | 987.77
328.15 K, m1 = 0.2501 | 261.5 | 990.83
328.15 K, m1 = 0.5002 | 261 | 995.67
328.15 K, m1 = 1.001 | 259.22 | 1004.79
328.15 K, m1 = 2 | 256.62 | 1021.31
328.15 K, m1 = 3.003 | 251.8 | 1035.9
328.15 K, m1 = 4.999 | 250.48 | 1059.9
333.15 K, m1 = 0.02 | 266 | –
333.15 K, m1 = 0.05 | 264.5 | –
333.15 K, m1 = 0.1 | 265 | –
333.15 K, m1 = 0.2501 | 264.3 | –
333.15 K, m1 = 0.5002 | 263.72 | –
333.15 K, m1 = 1.001 | 262 | –
333.15 K, m1 = 2 | 259.44 | –
333.15 K, m1 = 3.003 | 254.69 | –
333.15 K, m1 = 4.999 | 253.36 | –
338.15 K, m1 = 0.02 | 268.5 | 981.05
338.15 K, m1 = 0.05 | 267 | 981.63
338.15 K, m1 = 0.1 | 267.6 | 982.65
338.15 K, m1 = 0.2501 | 266.8 | 985.63
338.15 K, m1 = 0.5002 | 266.28 | 990.4
338.15 K, m1 = 1.001 | 264.6 | 999.46
338.15 K, m1 = 2 | 262.07 | 1015.84
338.15 K, m1 = 3.003 | 257.43 | 1030.29
338.15 K, m1 = 4.999 | 256.04 | 1054
343.15 K, m1 = 0.02 | 270.6 | –
343.15 K, m1 = 0.05 | 269.2 | –
343.15 K, m1 = 0.1 | 269.8 | –
343.15 K, m1 = 0.2501 | 269.15 | –
343.15 K, m1 = 0.5002 | 268.63 | –
343.15 K, m1 = 1.001 | 266.97 | –
343.15 K, m1 = 2 | 264.48 | –
343.15 K, m1 = 3.003 | 259.94 | –
343.15 K, m1 = 4.999 | 258.51 | –
348.15 K, m1 = 0.02 | 272.9 | 975.36
348.15 K, m1 = 0.05 | 271.3 | 975.93
348.15 K, m1 = 0.1 | 271.9 | 976.93
348.15 K, m1 = 0.2501 | 271.31 | 979.9
348.15 K, m1 = 0.5002 | 270.82 | 984.63
348.15 K, m1 = 1.001 | 269.16 | 993.59
348.15 K, m1 = 2 | 266.71 | 1009.84
348.15 K, m1 = 3.003 | 262.29 | 1024.18
348.15 K, m1 = 4.999 | 260.82 | 1047.69
353.15 K, m1 = 0.02 | 274.8 | –
353.15 K, m1 = 0.05 | 273.1 | –
353.15 K, m1 = 0.1 | 273.9 | –
353.15 K, m1 = 0.2501 | 273.26 | –
353.15 K, m1 = 0.5002 | 272.82 | –
353.15 K, m1 = 1.001 | 271.17 | –
353.15 K, m1 = 2 | 268.75 | –
353.15 K, m1 = 3.003 | 264.53 | –
353.15 K, m1 = 4.999 | 262.96 | –
358.15 K, m1 = 0.02 | 276.3 | 969.12
358.15 K, m1 = 0.05 | 274.7 | 969.7
358.15 K, m1 = 0.1 | 275.6 | 970.69
358.15 K, m1 = 0.2501 | 274.92 | 973.64
358.15 K, m1 = 0.5002 | 274.47 | 978.33
358.15 K, m1 = 1.001 | 272.82 | 987.24
358.15 K, m1 = 2 | 270.44 | 1003.38
358.15 K, m1 = 3.003 | 266.6 | 1017.63
358.15 K, m1 = 4.999 | 264.75 | 1041.02
363.15 K, m1 = 0.02 | 277.1 | –
363.15 K, m1 = 0.05 | 275.5 | –
363.15 K, m1 = 0.1 | 276.5 | –
363.15 K, m1 = 0.2501 | 275.65 | –
363.15 K, m1 = 0.5002 | 275.17 | –
363.15 K, m1 = 1.001 | 273.45 | –
363.15 K, m1 = 2 | 271.04 | –
363.15 K, m1 = 3.003 | 268.61 | –
363.15 K, m1 = 4.999 | 265.49 | –
368.15 K, m1 = 0.02 | – | 962.42
368.15 K, m1 = 0.05 | – | 963
368.15 K, m1 = 0.1 | – | 963.94
368.15 K, m1 = 0.2501 | – | 966.88
368.15 K, m1 = 0.5002 | – | 971.55
368.15 K, m1 = 1.001 | – | 980.42
368.15 K, m1 = 2 | – | 996.47
368.15 K, m1 = 3.003 | – | 1010.68
368.15 K, m1 = 4.999 | – | 1033.93
